In patent US6515124B2, “Dehydroamino acids” (Hoffman-La Roche Inc., priority 2000, dated 2003):

Assays:
[1] = biological target: T1, LFA-1 binding to immobilized ICAM-1 (Homo sapiens, UniProt P05107+P20701); assay: LFA-1/ICAM-1 Protein-Protein Assay (solid-phase ELISA); conditions: 5dICAM-Ig coated plates; membrane-bound LFA-1 from transfected 293 cells
T1 construct: made in house; host or cells: transfected 293 cells (LFA-1)
Description: LFA-1/ICAM-1 Protein-Protein Assay
LFA-1/ICAM-1 antagonist activity, defined as the ability to block LFA-1 binding to immobilized ICAM-1, was quantitated using a solid-phase ELISA. Typically, fusion protein consisting of the entire extracellular domain of human ICAM-1 and the Fc domain of human IgG (5dICAM-Ig) was coated onto 96-well microtiter plates (0.15 μg in 100 μL PBS) overnight at 4° C. The plates were then blocked with 150 μL of 1% BSA/1 mM MnCl2/0.14 M NaCl/20 mM HEPES, pH 7.2 for 1 h at 37° C. and washed 3 times (150 μL each) with Wash Buffer (50 mM Tris, pH 7.4/100 mM NaCl/1 mM MnCl2/0.05% Tween 20). Stock solutions (100 μM in 100% DMSO) of test compounds were diluted 50 fold with 150 μL of Binding Buffer (0.05% BSA/0.05% Tween 20/1 mM MnCl2/0.14 M NaCl/20 mM HEPES, pH 7.2) plus 10% DMSO. A series of 1:4 dilutions were performed to achieve a concentration range of 0.12 nM-2 μM. Fifty μL per well of each dilution was added to the ICAM-1 coated plates, followed by 50 μL per well of membrane-bound LFA-1 (280 ng/mL in Binding Buffer) derived from transfected 293 cells. The plates were shaken vigorously for 1 min (room temperature) and gently for 2 h (37° C.). After incubation, the plates were washed 3 times (150 μL each) with Wash Buffer. Mouse anti-human integrin β2 monoclonal antibody was added (100 μL/well, 1 μg/ml in Binding Buffer) and allowed to incubate for 1 h (37° C.) with gentle agitation. The plates were then washed 3 times with Wash Buffer. HRP-conjugated goat anti-mouse IgG (100 μL/well, 1:1500 dilution in Binding Buffer) was added to each well, followed by incubation for 1 h (37° C.) and concluded by three washes (150 μL each) with Wash Buffer. TMB solution (100 μL per well) was added for color development (10 min). The reaction was stopped by the addition of 100 μL of 1M H3PO4 to each well. The plates were then read at 450 nm.

[2] = system: T lymphocyte proliferation (murine spleen cells); assay: Mixed Lymphocyte Reaction (MLR), one-way; type: cell-based, mice; conditions: Mus musculus, T-lymphocyte, light or radiation study, 72 h, C57B1/6 spleen cells with irradiated BALB/c spleen cells; tritiated thymidine incorporation, 3 days
From the text: Mixed Lymphocyte Reaction (MLR)
Admixture of murine spleen cells from two different inbred strains of mice induces proliferation of T lymphocytes. The magnitude of T cell proliferation depends on the extent of disparity in the major histocompatibility antigens between the two strains. Splenic T lymphocytes from both strains proliferate due to alloantigen recognition, a process for which the interaction of ICAM-1 on antigen-presenting cells with LFA-1 on lymphocytes is necessary. The ability of antagonists to inhibit T lymphocyte proliferation following recognition of alloantigens was assessed in a one-way MLR, where cells from one strain were irradiated to permit measurement of the proliferative response of cells from the other strain. Spleen cells were washed three times in tissue culture medium (TCM; see below). Fifty microliters of a spleen cell suspension (prepared at 10×10^6 cells/ml in TCM) obtained from C57B1/6 mice were added to an equal number of lethally-irradiated (2000 rads) spleen cells obtained from BALB/c mice in a 96-well U-bottom tissue culture plate (Costar, 3799). One hundred microliters of serial dilutions of antagonists or TCM were added to the spleen cell mixture. The total volume in each well was 200 μL. TCM was RPMI1640 containing 10% heat-inactivated fetal bovine serum, […] L-glutamine, 100 Units/ml each of penicillin and streptomycin and 5×10^−5 M 2-mercaptoethanol. Dilutions of antagonists were prepared in TCM. Plates were incubated in 5% CO2 for 3 days. On the third day, 0.5 μCi of tritiated thymidine (10 μCi/mL) was added to all the wells. Cells were harvested 6 h later on a 96-well plate harvester and the amount of tritiated thymidine incorporated was assessed in a liquid scintillation counter.

T1 sequence (P20701 26-1170): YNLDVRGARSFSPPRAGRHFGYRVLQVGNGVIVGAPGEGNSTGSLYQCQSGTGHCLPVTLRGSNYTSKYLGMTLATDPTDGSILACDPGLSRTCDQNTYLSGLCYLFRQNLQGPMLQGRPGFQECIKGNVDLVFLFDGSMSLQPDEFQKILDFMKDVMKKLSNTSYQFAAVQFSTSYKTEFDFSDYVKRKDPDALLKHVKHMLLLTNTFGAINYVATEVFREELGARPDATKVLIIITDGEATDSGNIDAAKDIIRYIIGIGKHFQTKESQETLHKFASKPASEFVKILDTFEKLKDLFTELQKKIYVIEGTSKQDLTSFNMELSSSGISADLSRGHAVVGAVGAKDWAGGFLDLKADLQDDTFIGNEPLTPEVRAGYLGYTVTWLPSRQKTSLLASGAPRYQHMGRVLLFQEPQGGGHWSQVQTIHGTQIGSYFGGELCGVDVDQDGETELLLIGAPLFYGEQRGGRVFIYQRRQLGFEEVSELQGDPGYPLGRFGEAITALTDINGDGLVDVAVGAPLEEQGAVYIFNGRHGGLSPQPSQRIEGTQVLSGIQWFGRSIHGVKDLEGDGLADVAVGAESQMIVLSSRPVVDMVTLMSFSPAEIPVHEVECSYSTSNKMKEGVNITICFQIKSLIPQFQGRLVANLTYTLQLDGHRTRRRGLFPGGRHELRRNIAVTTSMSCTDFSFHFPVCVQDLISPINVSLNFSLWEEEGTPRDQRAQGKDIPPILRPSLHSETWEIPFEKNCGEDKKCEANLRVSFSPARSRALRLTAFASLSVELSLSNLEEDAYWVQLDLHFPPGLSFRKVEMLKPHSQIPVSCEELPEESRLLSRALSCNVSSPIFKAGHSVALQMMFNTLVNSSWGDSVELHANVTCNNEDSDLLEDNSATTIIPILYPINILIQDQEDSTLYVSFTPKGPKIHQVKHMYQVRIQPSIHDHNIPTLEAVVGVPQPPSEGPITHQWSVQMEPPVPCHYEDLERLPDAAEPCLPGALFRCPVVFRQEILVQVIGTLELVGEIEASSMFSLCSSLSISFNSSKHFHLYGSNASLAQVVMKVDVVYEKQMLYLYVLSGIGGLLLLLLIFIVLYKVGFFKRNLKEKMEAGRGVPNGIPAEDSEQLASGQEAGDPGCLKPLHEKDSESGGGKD
T1 sequence (P05107 23-769): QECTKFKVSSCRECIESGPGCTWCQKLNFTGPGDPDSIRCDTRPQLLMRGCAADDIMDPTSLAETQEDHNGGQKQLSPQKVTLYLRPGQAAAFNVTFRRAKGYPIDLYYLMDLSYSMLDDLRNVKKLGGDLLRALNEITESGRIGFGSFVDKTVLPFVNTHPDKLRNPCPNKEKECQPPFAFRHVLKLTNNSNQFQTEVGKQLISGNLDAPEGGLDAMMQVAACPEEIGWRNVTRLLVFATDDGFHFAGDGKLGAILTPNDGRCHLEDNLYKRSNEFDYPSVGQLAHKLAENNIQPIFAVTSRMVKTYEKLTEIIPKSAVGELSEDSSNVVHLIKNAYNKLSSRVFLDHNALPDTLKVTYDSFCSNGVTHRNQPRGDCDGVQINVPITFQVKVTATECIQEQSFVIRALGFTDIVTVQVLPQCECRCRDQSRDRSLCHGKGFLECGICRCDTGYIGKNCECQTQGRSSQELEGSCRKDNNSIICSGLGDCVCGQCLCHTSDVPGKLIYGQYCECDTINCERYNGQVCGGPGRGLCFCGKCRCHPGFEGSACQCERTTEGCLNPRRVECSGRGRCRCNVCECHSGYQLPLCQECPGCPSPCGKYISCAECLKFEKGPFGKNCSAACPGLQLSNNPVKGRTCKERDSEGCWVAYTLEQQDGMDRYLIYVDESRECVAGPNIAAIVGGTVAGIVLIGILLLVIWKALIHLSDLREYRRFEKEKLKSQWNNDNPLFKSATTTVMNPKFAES

IC50 [1] [nM] | SMILES | IC50 [2] [nM]
3 | Cc1nc(C)c(/C=C(\NC(=O)c2ccc(C(=O)CCc3cccc(O)c3)cc2Cl)C(=O)O)s1 [Example 295] | 10000
2.38 | O=C(O)/C(=C/c1cnc2ccccc2c1)NC(=O)c1ccc(C(=O)CCc2cccc(O)c2)cc1Cl [Example 294, (Z)-2-[[2-Chloro-4-[3-(3-hydroxyphenyl)-1-oxopropan-1-yl]benzoyl]amino]-3-(quinolin-3-yl)propenoic Acid] | 13000
3 | Cc1cc(C(=O)NCc2cccc(O)c2)ccc1C(=O)N/C(=C\c1ccc2cc[nH]c2c1)C(=O)O [Example 316, (Z)-2-[[4-[[(3-Hydroxybenzyl)amino]carbonyl]-2-methylbenzoyl]amino]-3-(1N-indol-6-yl)propenoic Acid] | 1150
1.56 | O=C(O)/C(=C/c1cnc2ccccc2c1)NC(=O)c1ccc(C(O)CCc2cccc(O)c2)cc1Cl (racemic) [Example 296, rac.-(Z)-2-[[2-Chloro-4-[1-hydroxy-3-(3-hydroxyphenyl)propan-1-yl]benzoyl]amino]-3-(quinolin-3-yl)propenoic Acid] | 2400
4.7 | Cc1cc(C(=O)NCc2cccc(O)c2)ccc1C(=O)N/C(=C\c1cnc2ccccc2c1)C(=O)O [Example 312] | 990
0.74 | O=C(O)/C(=C/c1ccc2[nH]nnc2c1)NC(=O)c1ccc(C(=O)NCc2cccc3[nH]ccc23)cc1Br [Example 286] | 1200
0.4 | Cc1cc(C(=O)NCc2cccc(O)c2)cc(Cl)c1C(=O)N/C(=C\c1ccc2[nH]nnc2c1)C(=O)O [Example 291, (Z)-3-(1H-Benzotriazol-5-yl)-2-[[2-chloro-4-[[(3-hydroxybenzyl)amino]carbonyl]-6-methylbenzoyl]amino]propenoic Acid] | 515
18.7 | O=C(O)/C(=C/c1ccccc1O)NC(=O)c1ccc(C(=O)NCc2cccc3[nH]ccc23)cc1Cl [Example 309] | 14500
4.26 | O=C(O)/C(=C/c1cnc2ccccc2c1)NC(=O)c1ccc(C(O)/C=C/c2cccc(O)c2)cc1Cl (racemic) [Example 298, rac.-(Z)-2-[[2-Chloro-4-[(E)-1-hydroxy-3-(3-hydroxyphenyl)prop-2-en-1-yl]benzoyl]amino]-3-(quinolin-3-yl)propenoic Acid] | 6200
1.74 | Nc1cccc(CNC(=O)c2ccc(C(=O)N/C(=C\c3cnc4ccccc4c3)C(=O)O)c(Br)c2)c1 [Example 322] | 4450
10.4 | O=C(O)/C(=C/c1ccccc1)NC(=O)c1ccc(C(=O)NCc2cccc3[nH]ccc23)cc1Cl [Example 306] | 13800
5.96 | Cc1nc(C)c(/C=C(\NC(=O)c2ccc(C(O)CCc3cccc(O)c3)cc2Cl)C(=O)O)s1 (racemic) [Example 297, rac.-(Z)-2-[[2-Chloro-4-[1-hydroxy-3-(3-hydroxyphenyl)propan-1-yl]benzoyl]amino]-3-(2,4-dimethylthiazol-5-yl)propenoic Acid] | 5700
0.54 | Cc1cc(C(=O)NCc2cccc(O)c2)cc(Cl)c1C(=O)N/C(=C\c1cnc2ccccc2c1)C(=O)O [Example 292, (Z)-2-[[2-Chloro-4-[[(3-hydroxybenzyl)amino]carbonyl]-6-methylbenzoyl]amino]-3-(quinolin-3-yl)propenoic Acid] | 925
32.5 | CC(C)c1ncsc1/C=C(\NC(=O)c1ccc(C(=O)NCc2cccc(O)c2)cc1Cl)C(=O)O [Example 300, (Z)-2-[[2-Chloro-4-[[(3-hydroxybenzyl)amino]carbonyl]benzoyl]amino]-3-[4-(1-methylethyl)thiazol-5-yl]propenoic Acid] | 21500
0.79 | O=C(O)/C(=C/c1cnc2ccccc2c1)NC(=O)c1ccc(C(=O)NCc2cccc(O)c2)cc1Cl [Example 283] | 370
13.1 | Cc1nc(C)c(/C=C(\NC(=O)c2ccc(C(O)/C=C/c3cccc(O)c3)cc2Cl)C(=O)O)s1 (racemic) [Example 299, rac.-(Z)-2-[[2-Chloro-4-[(E)-1-hydroxy-3-(3-hydroxyphenyl)prop-2-en-1-yl]benzoyl]amino]-3-(2,4-dimethylthiazol-5-yl)propenoic Acid] | 10000
13.4 | O=C(O)/C(=C/c1nc[nH]n1)NC(=O)c1ccc(C(=O)NCc2cccc(O)c2)cc1Br [Example 290, (Z)-2-[[2-Bromo-4-[[(3-hydroxybenzyl)amino]carbonyl]benzoyl]amino]-3-(1,2,4triazol-3-yl)propenoic Acid] | 1300
4.46 | O=C(O)/C(=C/c1ccccc1)NC(=O)c1ccc(C(=O)NCc2cccc(O)c2)cc1Cl [Example 282] | 1900
3.05 | O=C(O)/C(=C/c1ccc(Br)cc1)NC(=O)c1ccc(C(=O)NCc2cccc(O)c2)cc1Cl [Example 314, (Z)-3-(4-Bromophenyl)-2-[[2-chloro-4-[[(3-hydroxybenzyl)amino]carbonyl]benzoyl]amino]propenoic Acid] | 6100

Second part, the compound before the results:

SMILES | IC50 [1] [nM] | IC50 [2] [nM]
O=C(O)/C(=C/c1cnc(Cl)s1)NC(=O)c1ccc(C(=O)NCc2cccc(O)c2)cc1Cl [Example 266] | 2.7 | 9000
Cc1nnsc1/C=C(\NC(=O)c1ccc(C(=O)NCc2cccc(O)c2)cc1Br)C(=O)O [Example 263] | 6.86 | 2850
O=C(O)/C(=C/c1ccc2ccccc2c1)NC(=O)c1ccc(C(=O)NCc2cccc(O)c2)cc1Br [Example 274] | 0.62 | 1650
O=C(O)/C(=C/c1ccc2ncsc2c1)NC(=O)c1ccc(C(=O)NCc2cccc3[nH]ccc23)cc1Br [Example 267] | 6.37 | 6380
Cc1cc(C(=O)N[C@H](C)c2cccc3ccccc23)cc(C)c1C(=O)N/C(=C\c1ncc[nH]1)C(=O)O [Example 236] | 25.6 | 7180
O=C(O)/C(=C/c1csc2ccccc12)NC(=O)c1ccc(C(=O)NCc2cccc(O)c2)cc1Br [Example 264] | 4.2 | 13000
O=C(O)/C(=C/c1cnc(N2CCOCC2)s1)NC(=O)c1ccc(C(=O)NCc2cccc(O)c2)cc1Br [Example 261] | 39.6 | 26000
O=C(O)/C(=C/c1ccc2ncsc2c1)NC(=O)c1ccc(C(=O)NCc2cccc(O)c2)cc1Cl [Example 245] | 0.94 | 1380
Cc1nc(C)c(/C=C(\NC(=O)c2ccc(C(=O)NCc3cccc(O)c3)cc2Cl)C(=O)O)s1 [Example 244] | 1.95 | 3000
O=C(O)/C(=C/c1cnc2ccccc2c1)NC(=O)c1ccc(C(=O)NCc2cccc(O)c2)cc1Br [Example 277] | 0.53 | 356
O=C(O)/C(=C/c1ccccn1)NC(=O)c1ccc(C(=O)NCc2cccc(O)c2)cc1Br [Example 273] | 5.4 | 1400
Cc1cc(C(=O)N[C@H](C)c2cccc3ccccc23)cc(C)c1C(=O)N/C(=C\c1ccccc1)C(=O)O [Example 237] | 27 | 20000
O=C(O)/C(=C/c1ccccc1O)NC(=O)c1ccc(C(=O)NCc2cccc(O)c2)cc1Br [Example 272] | 1.4 | 1500
Cc1nc(C)c(/C=C(\NC(=O)c2ccc(C(=O)NCc3cccc4[nH]ccc34)cc2Br)C(=O)O)s1 [Example 249] | 5.78 | 16000
